Assay results reported in patent publication US20230355598A1, “PYRROLIDINE COMPOUNDS TO TREAT XERODERMA PIGMENTOSUM” (Clinuvel (UK) Ltd., priority 2020, published 2023).

System: Melanocytes
Assay: Measurement of UV-induced apoptosis by Annexin Va staining
Format: cell-based
Details: melanocytes in medium lacking BPE; treated 4 days prior to and 24 h after UV dose 105 mJ/cm^2; vs control
Method: Melanocytes were treated with the different concentrations of the pyrrolidine compound for 4 days prior to, and 24 h after exposure to a UV dose (105 mJ/cm^2), then stained for Annexin Va staining. The data were collected as percent increase above control, with triplicate dishes included in each group. Effect of the pyrrolidine compound vs control on the UV-induced apoptosis were determined in melanocyte strains. Floating as well as attached cells were harvested and stained for Annexin V, and analyzed by flow cytometry.

## COC[C@H]1CN(C(=O)[C@]2(F)CN(C3CCCC3)C[C@H]2c2ccc(OC)cc2)C[C@@H]1c1ccc(C(F)(F)F)cc1N1CCC(C(=O)O)CC1 [Dersimelagon, 1-{2-[(3S,4R)-1-{[(3R,4R)-1-cyclopentyl-3-fluoro-4-(4-methoxyphenyl)pyrrolidin-3-yl]carbonyl}-4-(methoxymethyl)pyrrolidin-3-yl]-5-(trifluoromethyl)phenyl}piperidine-4-carboxylic acid]
  Effect on UV-induced apoptosis (Annexin V staining, flow cytometry): beneficial anti-apoptotic effects
